Measured values as given in ChEMBL document CHEMBL1201862, “PubChem BioAssay data set” (2004).
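Five compound concentrations were applied to cells in 96-well plates for 48 hours; endpoints were derived by simple linear interpolation of the resulting dose-response curve. GI50 marks 50% less growth.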 Calls of active or inactive are those of the source. Rule as the data show it: active = GI50 up to about 1.1 µM and inactive = higher.

Legend:
Experiment in all cases: NCI-60 cell line screen, 48 h
786-0 = tested on: 786-0
A498 = tested on: A498
A549 = tested on: A549
ACHN = tested on: ACHN
BT-549 = tested on: BT-549
CAKI-1 = tested on: CAKI-1
CCRF-CEM = tested on: CCRF-CEM
COLO 205 = tested on: COLO 205
DU-145 = tested on: DU-145
EKVX = tested on: EKVX
HCC 2998 = tested on: HCC 2998
HCT-116 = tested on: HCT-116
HCT-15 = tested on: HCT-15
HL-60 = tested on: HL-60
HOP-62 = tested on: HOP-62
HOP-92 = tested on: HOP-92
HT-29 = tested on: HT-29
Hs-578T = tested on: Hs-578T
IGROV-1 = tested on: IGROV-1
K562 = tested on: K562
KM12 = tested on: KM12
LOX IMVI = tested on: LOX IMVI
M14 = tested on: M14
MCF7 = tested on: MCF7
MDA-MB-231 = tested on: MDA-MB-231
MDA-MB-435 = tested on: MDA-MB-435
MDA-N = tested on: MDA-N
MOLT-4 = tested on: MOLT-4
Malme-3M = tested on: Malme-3M
NCI-H23 = tested on: NCI-H23
NCI-H460 = tested on: NCI-H460
NCI-H522 = tested on: NCI-H522
NCI/ADR-RES = tested on: NCI/ADR-RES
OVCAR-3 = tested on: OVCAR-3
OVCAR-4 = tested on: OVCAR-4
OVCAR-5 = tested on: OVCAR-5
OVCAR-8 = tested on: OVCAR-8
PC-3 = tested on: PC-3
RPMI-8226 = tested on: RPMI-8226
RXF 393 = tested on: RXF 393
SF-268 = tested on: SF-268
SF-295 = tested on: SF-295
SF-539 = tested on: SF-539
SK-MEL-28 = tested on: SK-MEL-28
SK-MEL-2 = tested on: SK-MEL-2
SK-MEL-5 = tested on: SK-MEL-5
SK-OV-3 = tested on: SK-OV-3
SN12C = tested on: SN12C
SNB-19 = tested on: SNB-19
SNB-75 = tested on: SNB-75
SW-620 = tested on: SW-620
T47D = tested on: T47D
TK-10 = tested on: TK-10
U-251 = tested on: U-251
UACC-257 = tested on: UACC-257
UACC-62 = tested on: UACC-62
UO-31 = tested on: UO-31
NCI-H226 = tested on: NCI-H226
SR = tested on: SR

Measured: GI50

O=C1Nc2ccccc2/C1=C\c1c(-c2ccccc2)nc2n1CCS2
18.6 µM: HCT-15
inactive: 786-0 19.6 µM | A498 18.2 µM | A549 28.4 µM | ACHN 23.6 µM | BT-549 20 µM | CAKI-1 21.3 µM | CCRF-CEM 24.7 µM | COLO 205 29 µM | DU-145 13.6 µM | EKVX 17.7 µM | HCC 2998 16.4 µM | HCT-116 20.8 µM | HL-60 18.2 µM | HOP-62 29.2 µM | HOP-92 39.3 µM | HT-29 19.5 µM | Hs-578T 23.4 µM | IGROV-1 23 µM | K562 19.5 µM | KM12 16.8 µM | LOX IMVI 18.3 µM | M14 30.3 µM | MCF7 12.5 µM | MDA-MB-231 21.4 µM | MDA-MB-435 8.93 µM | MDA-N 13.1 µM | MOLT-4 25.8 µM | Malme-3M 26.9 µM | NCI-H23 22.9 µM | NCI-H460 17.3 µM | NCI-H522 18.7 µM | NCI/ADR-RES 23.1 µM | OVCAR-3 15.6 µM | OVCAR-4 29 µM | OVCAR-5 17.5 µM | OVCAR-8 31.3 µM | PC-3 19.1 µM | RPMI-8226 22.6 µM | RXF 393 16.7 µM | SF-268 26.5 µM | SF-295 17.3 µM | SF-539 18.7 µM | SK-MEL-28 31.2 µM | SK-MEL-2 13.3 µM | SK-MEL-5 16.5 µM | SK-OV-3 21.4 µM | SN12C 22.1 µM | SNB-19 28.5 µM | SNB-75 12.1 µM | SW-620 29.3 µM | T47D 18.7 µM | TK-10 13.9 µM | U-251 20.5 µM | UACC-257 19.5 µM | UACC-62 13 µM | UO-31 5.68 µM

CCCCc1nc(C)oc1C(C)C
inactive: 786-0 > 100 µM | A498 > 100 µM | A549 > 100 µM | ACHN > 100 µM | BT-549 > 100 µM | CAKI-1 > 100 µM | CCRF-CEM > 100 µM | COLO 205 > 100 µM | DU-145 > 100 µM | EKVX > 100 µM | HCC 2998 > 100 µM | HCT-116 > 100 µM | HL-60 > 100 µM | HOP-62 > 100 µM | HOP-92 > 100 µM | HT-29 > 100 µM | Hs-578T > 100 µM | IGROV-1 > 100 µM | K562 > 100 µM | KM12 > 100 µM | LOX IMVI > 100 µM | M14 > 100 µM | MCF7 > 100 µM | MDA-MB-231 > 100 µM | MDA-MB-435 > 100 µM | MDA-N > 100 µM | MOLT-4 > 100 µM | Malme-3M > 100 µM | NCI-H226 40.7 µM | NCI-H23 > 100 µM | NCI-H460 > 100 µM | NCI-H522 > 100 µM | NCI/ADR-RES > 100 µM | OVCAR-3 > 100 µM | OVCAR-4 > 100 µM | OVCAR-5 > 100 µM | OVCAR-8 > 100 µM | PC-3 > 100 µM | RXF 393 > 100 µM | SF-268 > 100 µM | SF-295 > 100 µM | SF-539 > 100 µM | SK-MEL-28 > 100 µM | SK-MEL-5 > 100 µM | SK-OV-3 > 100 µM | SN12C > 100 µM | SNB-75 > 100 µM | SW-620 > 100 µM | T47D > 100 µM | TK-10 > 100 µM | U-251 > 100 µM | UACC-257 > 100 µM | UACC-62 > 100 µM | UO-31 > 100 µM
> 100 µM: HCT-15

CCOC(=O)C1(C/C=C/CCl)CCCC1=O (stereo not given)
18.9 µM: HCT-15
inactive: 786-0 22.8 µM | A498 25.2 µM | A549 21.5 µM | ACHN 15.3 µM | BT-549 18.2 µM | CAKI-1 29.6 µM | CCRF-CEM 19.5 µM | COLO 205 26 µM | DU-145 31.1 µM | EKVX 19.5 µM | HCT-116 17.2 µM | HL-60 38.2 µM | HOP-62 20.5 µM | HT-29 24.2 µM | Hs-578T 44 µM | IGROV-1 18.3 µM | KM12 20 µM | LOX IMVI 14.9 µM | M14 18.1 µM | MCF7 16.4 µM | MDA-MB-231 16.6 µM | MDA-MB-435 20.3 µM | MDA-N 17.9 µM | MOLT-4 35.1 µM | Malme-3M 22.5 µM | NCI-H226 14.3 µM | NCI-H23 18.8 µM | NCI-H460 30.1 µM | NCI-H522 23.7 µM | NCI/ADR-RES 19.5 µM | OVCAR-4 29.6 µM | OVCAR-5 17.8 µM | OVCAR-8 20.8 µM | PC-3 30.5 µM | RXF 393 16.8 µM | SF-268 25.4 µM | SF-295 37.2 µM | SF-539 20.7 µM | SK-MEL-28 23 µM | SK-MEL-2 19 µM | SK-MEL-5 15.6 µM | SK-OV-3 33.3 µM | SN12C 24.1 µM | SNB-19 23 µM | SNB-75 19.8 µM | SW-620 20.3 µM | T47D 23.1 µM | TK-10 21.1 µM | U-251 24.5 µM | UACC-257 35.2 µM | UACC-62 14.1 µM | UO-31 20 µM

Cc1ccc2c(c1)C(=C(C#N)C#N)CCCS2(=O)=O
> 100 µM: HCT-15
inactive: 786-0 > 100 µM | A498 > 100 µM | A549 > 100 µM | ACHN > 100 µM | BT-549 > 100 µM | CAKI-1 > 100 µM | CCRF-CEM > 100 µM | COLO 205 > 100 µM | DU-145 > 100 µM | EKVX > 100 µM | HCC 2998 > 100 µM | HCT-116 > 100 µM | HL-60 > 100 µM | HOP-62 > 100 µM | HOP-92 > 100 µM | HT-29 > 100 µM | Hs-578T > 100 µM | IGROV-1 > 100 µM | K562 > 100 µM | KM12 > 100 µM | LOX IMVI > 100 µM | M14 > 100 µM | MDA-MB-231 > 100 µM | MDA-MB-435 > 100 µM | MDA-N > 100 µM | MOLT-4 > 100 µM | NCI-H226 > 100 µM | NCI-H23 > 100 µM | NCI-H460 > 100 µM | NCI/ADR-RES > 100 µM | OVCAR-3 > 100 µM | OVCAR-4 > 100 µM | OVCAR-5 > 100 µM | OVCAR-8 > 100 µM | PC-3 > 100 µM | RPMI-8226 > 100 µM | RXF 393 > 100 µM | SF-268 > 100 µM | SF-295 > 100 µM | SF-539 > 100 µM | SK-MEL-28 > 100 µM | SK-MEL-2 > 100 µM | SK-OV-3 > 100 µM | SN12C > 100 µM | SNB-19 > 100 µM | SNB-75 > 100 µM | SR > 100 µM | SW-620 > 100 µM | T47D > 100 µM | TK-10 > 100 µM | U-251 > 100 µM | UACC-257 > 100 µM | UACC-62 > 100 µM | UO-31 > 100 µM
